For 20 compounds, Ki, Activity and IC50 results are on record in ChEMBL document CHEMBL4819110, “Developments of small molecules as inhibitors for carbonic anhydrase isoforms” (Bioorg Med Chem, 2021).

Activity calls are given as the source filed them. The calls are words filed in the database; no cut-off is given here.

Among the targets are Carbonic anhydrase 9 (Homo sapiens, UniProt Q16790); Carbonic anhydrase 2 (Homo sapiens, UniProt P00918); Carbonic anhydrase 1 (Homo sapiens, UniProt P00915).
Test [1] concerns HT-29. The experiment in a line: Down regulation of CA12 expression in human HT-29 cells at […] by western blot analysis. The class given is functional, cell-based. (Immunoblotting shows a protein as a band on a membrane.)
The test system of test [2] is HT-29. The test is described as follows: Down regulation of CA9 expression in human HT-29 cells at […] by western blot analysis. The class given is functional, cell-based.
In a further test the test system is MCF7. The experiment in a line: Cytotoxicity against human MCF7 cells. The class given is functional, cell-based.
The next test has as its target Carbonic anhydrase 4 (Homo sapiens, UniProt P22748). The test is described as follows: Inhibition of human CA4 by stopped-flow assay.
For another test, the system named is Oryctolagus cuniculus. The test is described as follows: Antiglaucoma activity in rabbit assessed as reduction in intraocular pressure administered topically measured upto 6 hrs. The class given is functional, organism-based. To be noted: time hrs <=6.
In test [3] the target is Mitogen-activated protein kinase 14 (Homo sapiens, UniProt Q16539). The test is described as follows: Inhibition of p38alphaMAPK (unknown origin).
Sequence of Mitogen-activated protein kinase 14 (Q16539 whole entry): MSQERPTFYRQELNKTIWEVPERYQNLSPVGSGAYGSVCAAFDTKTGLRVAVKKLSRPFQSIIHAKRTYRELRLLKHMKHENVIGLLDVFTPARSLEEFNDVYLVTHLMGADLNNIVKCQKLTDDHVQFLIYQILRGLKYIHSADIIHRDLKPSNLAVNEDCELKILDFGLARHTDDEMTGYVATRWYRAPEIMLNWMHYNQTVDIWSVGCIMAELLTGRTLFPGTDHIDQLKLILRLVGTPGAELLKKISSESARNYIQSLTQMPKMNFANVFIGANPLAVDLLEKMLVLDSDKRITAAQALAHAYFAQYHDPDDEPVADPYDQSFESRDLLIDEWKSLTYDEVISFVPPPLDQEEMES
Test [4] concerns MDA-MB-231. The experiment in a line: Induction of cell cycle arrest in human MDA-MB-231 cells assessed as […] in G2/M accumulation at IC50 by flow cytometry analysis. The class given is functional, cell-based. In general terms: A flow cytometer gives signals particle by particle.
Test [5] concerns MDA-MB-231. The experiment in a line: Induction of apoptosis in human MDA-MB-231 cells assessed as late apoptotic cells at IC50 by flow cytometry analysis (reference value: 0.26 %). In kind it is functional.
Test [6] deals with MDA-MB-231. The test is described as follows: Induction of apoptosis in human MDA-MB-231 cells assessed as early apoptotic cells at IC50 by flow cytometry analysis (reference value: 0.77 %). In kind it is functional.
In test [7] the test system is MDA-MB-231. The experiment in a line: Induction of apoptosis in human MDA-MB-231 cells assessed as necrotic cells at IC50 by flow cytometry analysis (reference value: 0.51 %). In kind it is functional.
Test [8] has as its system MDA-MB-231. The test is described as follows: Induction of cell cycle arrest in human MDA-MB-231 cells assessed as increase in sub-G1 accumulation at IC50 by flow cytometry analysis. In kind it is functional, cell-based.

Sequence of Carbonic anhydrase 4 (P22748 whole entry): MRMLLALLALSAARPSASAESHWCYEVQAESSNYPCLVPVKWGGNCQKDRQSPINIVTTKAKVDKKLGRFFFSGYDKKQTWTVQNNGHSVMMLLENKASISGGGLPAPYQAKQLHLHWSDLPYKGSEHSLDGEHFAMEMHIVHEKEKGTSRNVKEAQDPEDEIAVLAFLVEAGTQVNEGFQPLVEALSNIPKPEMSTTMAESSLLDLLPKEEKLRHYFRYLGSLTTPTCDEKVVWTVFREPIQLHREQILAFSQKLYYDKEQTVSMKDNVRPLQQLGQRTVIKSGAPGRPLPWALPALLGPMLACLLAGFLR
Sequence of Carbonic anhydrase 1 (P00915 whole entry): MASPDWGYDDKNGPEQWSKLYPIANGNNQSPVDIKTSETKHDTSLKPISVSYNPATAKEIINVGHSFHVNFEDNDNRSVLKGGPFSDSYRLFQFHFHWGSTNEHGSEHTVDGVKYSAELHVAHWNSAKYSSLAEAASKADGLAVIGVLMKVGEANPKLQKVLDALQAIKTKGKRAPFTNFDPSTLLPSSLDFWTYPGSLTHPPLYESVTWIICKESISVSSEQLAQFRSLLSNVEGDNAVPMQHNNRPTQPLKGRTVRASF
Description for Carbonic anhydrase 1: Inhibition of human CA1 by stopped-flow assay
Description for Carbonic anhydrase 2: Inhibition of human CA2 by stopped-flow assay
Description for Carbonic anhydrase 9: Inhibition of human CA9 by stopped-flow assay

A word on the Ki: it is a dissociation constant, usually derived from enzyme kinetics or from competition with a known ligand. Take `O=Cc1ccccc1OCc1cn(CCCOc2ccc3ccc(=O)oc3c2)nn1`: the inhibition constant Ki on Carbonic anhydrase 9 is 0.0609 µM. Moreover, the outcome in the test on HT-29 [1] and in the test with HT-29 [2] was Active.
`NS(=O)(=O)c1ccc(N2C(=O)/C(=C\c3ccccc3)N=C2c2ccccc2)cc1` had an inhibitory constant (Ki) on Carbonic anhydrase 9 of 0.0587 µM.
As usually defined, the IC50 is the concentration that gives 50% inhibition. On Carbonic anhydrase 9, `NS(=O)(=O)c1ccc(Nc2nc(NN3C(=O)/C(=C\c4ccc(Cl)cc4)N=C3c3ccccc3)cs2)cc1` showed an inhibition constant Ki of 0.0292 µM. In addition, in the test on MCF7, the 50% inhibitory concentration (IC50) was greater than 150 µM.
As to `CC(=O)n1cc(/C=C2/N=C(c3ncccn3)N(c3ccc(S(N)(=O)=O)cc3)C2=O)c2ccccc21`, the inhibitory constant (Ki) on Carbonic anhydrase 9, on Carbonic anhydrase 4, on Carbonic anhydrase 2 and on Carbonic anhydrase 1 was greater than 10 µM in each case.
Turning to `NS(=O)(=O)c1ccc(C(=O)N[C@@H]2OC[C@@H](O)[C@H](O)[C@H]2O)cc1`, in the test on Oryctolagus cuniculus, the result was Active.
On to `CC(=O)NS(=O)(=O)c1ccc(N2C(=O)/C(=C\c3cn(C(C)=O)c4ccccc34)N=C2c2ccccc2)cc1`, for which the inhibition constant Ki at Carbonic anhydrase 9 is 1.47 µM; on Carbonic anhydrase 4, greater than 10 µM.
Take `NS(=O)(=O)c1ccc(C(=O)N[C@@H]2O[C@H](CO)[C@@H](O)[C@H](O)[C@@H]2O)cc1`: in the test on Oryctolagus cuniculus, the outcome was Active.
For the compound `COc1ccc(C2=N/C(=C/c3ccc(O)cc3)C(=O)N2c2ccc(S(N)(=O)=O)cc2)cc1`, the Ki worked out at 0.0124 µM on Carbonic anhydrase 9, 0.0069 µM on Carbonic anhydrase 4, 0.00083 µM at Carbonic anhydrase 2 and 0.095 µM at Carbonic anhydrase 1. In test [3], the IC50 is 0.14 µM.
With `NS(=O)(=O)c1ccc(-n2nnc(C(=O)O)c2-c2ccccn2)cc1`, at Carbonic anhydrase 9, the Ki came out at 1.41 µM.
In turn, `COc1ccc(OC)c(/C=C2/N=C(c3ccccc3)N(c3ccc(S(N)(=O)=O)cc3)C2=O)c1` came in with a Ki at Carbonic anhydrase 9 of 0.023 µM.
On to `CC(=O)n1cc(/C=C2/N=C(c3ccccc3)N(c3ccc(S(N)(=O)=O)cc3)C2=O)c2ccccc21`, for which the Ki was found to be 0.318 µM at Carbonic anhydrase 9 and 0.263 µM on Carbonic anhydrase 4.
In turn, `CCN1C(=O)/C(=N\NC(=O)c2ccc(S(N)(=O)=O)cc2)c2ccccc21` returned a Ki at Carbonic anhydrase 9 of 0.0089 µM.
In turn, `CN(C)c1ccc(/C=C2/N=C(c3ccccc3)N(Nc3csc(Nc4ccc(S(N)(=O)=O)cc4)n3)C2=O)cc1` gave an IC50 in the test on MCF7 of 38.9 µM.
As for `NS(=O)(=O)c1ccc(C/N=C/c2c(OCc3cn(CCCOc4ccc5ccc(=O)oc5c4)nn3)ccc3ccccc23)cc1`, the outcome in the test on HT-29 [1] and in the test with HT-29 [2] was Active.
For the compound `NS(=O)(=O)c1ccc(NC(=O)Nc2ccc(/N=C3\C(=O)Nc4ccc(Cl)cc43)cc2)cc1`, the Ki at Carbonic anhydrase 9 was 7430 µM. Moreover, the outcome with MDA-MB-231 [4] and in the test with MDA-MB-231 [8] was Active. In addition, the Activity stood at 11.26% in the test on MDA-MB-231 [5], 7.28% in the test with MDA-MB-231 [6] and 2.47% with MDA-MB-231 [7].
On Carbonic anhydrase 9, `COc1cc(/C=C2/N=C(c3ccccc3)N(c3ccc(S(N)(=O)=O)cc3)C2=O)cc(OC)c1OC` showed an inhibition constant Ki of 0.0682 µM.
`NS(=O)(=O)c1ccc(Nc2nc(NN3C(=O)/C(=C\c4ccccc4)N=C3c3ccccc3)cs2)cc1` registered an IC50 with MCF7 of 45.9 µM.
Take `NS(=O)(=O)c1ccc(-n2nnc(C(=O)N3N=C(c4ccccn4)CC3(O)C(F)(F)F)c2-c2ccc(F)cc2)cc1` (stereo not drawn): affinity on Carbonic anhydrase 9 was put at a Ki of 0.0007 µM.
Turning to `COC(=O)[C@H]1O[C@@H](NC(=O)c2ccc(S(N)(=O)=O)cc2)[C@H](O)[C@@H](O)[C@@H]1O`, the outcome in the test with Oryctolagus cuniculus was Active.
For `C[C@@H]1OC[C@@](O)(NC(=O)c2ccc(S(N)(=O)=O)cc2)[C@H](O)[C@H]1O`, the IC50 at Carbonic anhydrase 9 was 0.76 µM.
